Test results as given in patent publication US7862751B2, “Formulation of fine particles using liquefield or dense gases” (MAP Pharmaceuticals, Inc., priority 2002, dated 2011).

What was measured:
[1] = coadministration of cyclosporine; J Clin Oncol 2001; cited from earlier work
[2] = Particle size by SEM; format: physicochemical; settings: processed with CO2 at 190 bar, 50° C. and 25° C.
[3] = cited from earlier work

Row | particle size [2] | Compound | bioavailability [1] | solubility in water [3]
1 | – | CC(=O)O[C@@]12CO[C@@H]1C[C@H](O)[C@@]1(C)C(=O)[C@H](O)C3=C(C)[C@@H](OC(=O)[C@H](O)[C@@H](NC(=O)OC(C)(C)C)c4ccccc4)C[C@@](O)([C@@H](OC(=O)c4ccccc4)[C@H]21)C3(C)C [docetaxel] | strongly enhanced | –
2 | approximately 5 microns | Cc1ccc(C)c(OCCCC(C)(C)C(=O)O)c1 [gemfibrozil, 5-(2,5-dimethylphenoxy)-2,2-dimethylpentanoic acid] | – | very poorly soluble
